The IC50 is the concentration that inhibits the measured activity by half. Low readings indicate greater potency in that assay, high ones weaker potency in that assay.

In ChEMBL document CHEMBL5726379, “Selective histone deactylase 6 inhibitors” (2017) one finds IC50 data, which are given here for two molecules.

Assay [1] deals with Histone deacetylase 1 (Homo sapiens, UniProt Q13547).
Assay [2] has as its target T1, Protein deacetylase HDAC6 (Homo sapiens, UniProt Q9UBN7).
T1 sequence (Q9UBN7 whole entry): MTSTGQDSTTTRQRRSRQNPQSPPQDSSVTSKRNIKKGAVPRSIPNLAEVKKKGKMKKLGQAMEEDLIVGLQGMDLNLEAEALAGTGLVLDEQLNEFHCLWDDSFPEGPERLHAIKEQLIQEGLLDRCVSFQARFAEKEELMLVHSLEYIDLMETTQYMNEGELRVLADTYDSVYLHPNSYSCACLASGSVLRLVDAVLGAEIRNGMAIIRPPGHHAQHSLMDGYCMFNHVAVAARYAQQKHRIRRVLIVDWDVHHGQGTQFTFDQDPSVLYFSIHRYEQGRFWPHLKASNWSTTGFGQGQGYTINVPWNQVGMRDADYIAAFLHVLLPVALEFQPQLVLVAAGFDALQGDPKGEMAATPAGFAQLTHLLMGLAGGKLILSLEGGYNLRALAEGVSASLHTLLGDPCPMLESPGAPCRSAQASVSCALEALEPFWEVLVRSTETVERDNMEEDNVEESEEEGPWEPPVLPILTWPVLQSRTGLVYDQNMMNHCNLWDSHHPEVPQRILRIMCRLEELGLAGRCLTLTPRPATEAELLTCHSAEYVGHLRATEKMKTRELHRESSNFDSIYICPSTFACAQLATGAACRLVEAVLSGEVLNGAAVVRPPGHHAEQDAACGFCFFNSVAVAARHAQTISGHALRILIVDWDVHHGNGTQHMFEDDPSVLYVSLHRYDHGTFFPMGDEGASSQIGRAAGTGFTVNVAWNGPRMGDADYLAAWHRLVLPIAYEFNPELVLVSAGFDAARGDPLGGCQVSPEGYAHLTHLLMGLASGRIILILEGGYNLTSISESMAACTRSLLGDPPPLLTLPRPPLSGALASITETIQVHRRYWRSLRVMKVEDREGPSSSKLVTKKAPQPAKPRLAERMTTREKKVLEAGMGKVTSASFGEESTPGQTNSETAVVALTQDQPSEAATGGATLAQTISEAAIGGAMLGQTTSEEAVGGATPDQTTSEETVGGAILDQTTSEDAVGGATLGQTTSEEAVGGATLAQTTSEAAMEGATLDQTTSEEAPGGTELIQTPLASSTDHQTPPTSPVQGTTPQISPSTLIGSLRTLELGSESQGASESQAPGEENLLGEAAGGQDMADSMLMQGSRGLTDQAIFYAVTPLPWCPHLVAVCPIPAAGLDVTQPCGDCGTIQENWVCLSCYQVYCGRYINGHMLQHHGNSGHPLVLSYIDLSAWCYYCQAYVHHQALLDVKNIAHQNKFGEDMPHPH

Sequence of Histone deacetylase 1 (Q13547 whole entry): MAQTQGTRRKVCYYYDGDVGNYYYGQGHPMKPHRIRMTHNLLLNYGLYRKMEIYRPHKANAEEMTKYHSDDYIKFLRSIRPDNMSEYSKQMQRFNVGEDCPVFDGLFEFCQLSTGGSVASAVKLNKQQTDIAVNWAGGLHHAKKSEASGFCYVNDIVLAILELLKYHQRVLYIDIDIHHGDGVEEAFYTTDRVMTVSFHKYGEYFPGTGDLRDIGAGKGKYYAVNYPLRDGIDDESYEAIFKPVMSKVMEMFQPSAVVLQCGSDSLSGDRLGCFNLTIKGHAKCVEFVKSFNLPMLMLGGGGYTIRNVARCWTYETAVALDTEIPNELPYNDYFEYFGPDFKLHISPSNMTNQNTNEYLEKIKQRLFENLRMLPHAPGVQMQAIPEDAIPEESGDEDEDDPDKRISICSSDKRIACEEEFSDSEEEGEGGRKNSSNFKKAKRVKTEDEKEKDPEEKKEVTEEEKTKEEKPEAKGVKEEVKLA

Take `CCCCN(Cc1ccc(C(=O)NO)cc1)C(=O)Nc1cccc(N(C)C)c1`: the IC50 in assay [1] worked out at 604 nM; in assay [2] it was 6.12 nM.

Turning to `O=C(NCc1ccc(C(=O)NO)cc1)Nc1ccc(CO)cc1`, the IC50 in assay [1] turned out to be 1060 nM; in assay [2] it was 8.3 nM.
